Measurements taken from patent US8399465B2, “Compounds with two fused bicyclic heteroaryl moieties as modulators of leukotriene A4 hydrolase” (Janssen Pharmaceutica NV, priority 2009, dated 2013).
Structures can show the parent of a compound that is named as a salt.

Tests used:
[1] = molecular target: T1, recombinant human LTA4 hydrolase (rhLTA4H) (Homo sapiens, UniProt P09960); test: Recombinant human LTA4 hydrolase assay for LTA4 hydrolase inhibitor activity; format: biochemical; settings: rhLTA4H, LTB4 by immunoassay; single determination or average of two or more; mark after value = form tested: ′ free base, ″ hydrochloride, ^ formate; read-out: IC50
T1 construct: made in house; host or cells: Spodoptera frugiperda (Sf-9) cells, baculovirus (pFastBac1)
T1 sequence (P09960 1-611): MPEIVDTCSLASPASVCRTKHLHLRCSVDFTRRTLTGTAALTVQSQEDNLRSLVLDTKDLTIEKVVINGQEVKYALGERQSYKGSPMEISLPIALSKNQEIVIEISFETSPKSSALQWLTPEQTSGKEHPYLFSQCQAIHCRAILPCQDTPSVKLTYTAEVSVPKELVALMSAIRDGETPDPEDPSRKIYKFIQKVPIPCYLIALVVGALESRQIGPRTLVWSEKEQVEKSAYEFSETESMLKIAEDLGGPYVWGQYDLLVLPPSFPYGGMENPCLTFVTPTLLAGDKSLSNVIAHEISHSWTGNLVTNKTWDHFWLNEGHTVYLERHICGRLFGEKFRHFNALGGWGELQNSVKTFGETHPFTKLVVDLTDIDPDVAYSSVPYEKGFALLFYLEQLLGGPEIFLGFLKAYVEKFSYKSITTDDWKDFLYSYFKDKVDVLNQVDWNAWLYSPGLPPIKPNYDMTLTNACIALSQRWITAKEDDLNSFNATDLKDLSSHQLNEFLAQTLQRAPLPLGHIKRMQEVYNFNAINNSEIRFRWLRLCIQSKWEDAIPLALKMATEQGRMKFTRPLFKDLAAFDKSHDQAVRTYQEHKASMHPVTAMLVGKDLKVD
In short: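 LTB4 formation, measured by enzyme immunoassay, was the read-out. The enzyme, recombinant human LTA4H expressed in Sf-9 insect cells (10 ng per reaction), was exposed to compound for 10 min at room temperature before hydrolysed-ester LTA4 substrate was added for 30 min. Enzyme-free negatives were included.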

[2] = test system: LTB4 production in murine blood (LTA4H); test: LTB4 production by calcium ionophore-stimulated murine blood for LTA4H inhibitor activity; format: cell-based, CD-1 mice; settings: Mus musculus; murine blood diluted 1 in 15, A23187 stimulated; single determination or average; mark after value = form tested: ′ free base, ″ hydrochloride, ^ formate; read-out: IC50
In short: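 LTB4 was measured by ELISA in supernatants after calcium ionophore A23187 stimulation (final 7 μg/mL, 30 min, 37° C) of CD-1 mouse blood collected on heparin. Compound was preincubated with the blood for 15 min beforehand. Values come from one determination or average several.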

SMILES | IC50 [1] [nM] | IC50 [2] [nM]
CC1CC(C)CN(Cc2coc3cc(Oc4nc5ncccc5s4)ccc23)C1 (stereo not shown) [Example 281, 2-[3-(3,5-Dimethyl-piperidin-1-ylmethyl)-benzofuran-6-yloxy]-thiazolo[4,5-b]pyridine formate] | 28 | 77
c1cnc2nc(Oc3ccc4c(CN5CCC(N6CCCC6)CC5)coc4c3)sc2c1 [Example 283, 2-[3-(4-Pyrrolidin-1-yl-piperidin-1-ylmethyl)-benzofuran-6-yloxy]-thiazolo[4,5-b]pyridine formate] | 35 | 130
c1cnc2nc(Oc3ccc4c(CN5CCC(N6CCCCC6)CC5)coc4c3)sc2c1 [Example 284, 1′-[6-(Thiazolo[4,5-b]pyridin-2-yloxy)-benzofuran-3-ylmethyl]-[1,4′]bipiperidinyl formate] | 24 | 160
c1ccc(N2CCN(Cc3coc4cc(Oc5nc6ncccc6s5)ccc34)CC2)cc1 [Example 287, 2-[3-(4-Phenyl-piperazin-1-ylmethyl)-benzofuran-6-yloxy]-thiazolo[4,5-b]pyridine formate] | 26 | 240
COc1ccc(N2CCN(Cc3coc4cc(Oc5nc6ncccc6s5)ccc34)CC2)cc1 [Example 290, 2-{3-[4-(4-Methoxy-phenyl)-piperazin-1-ylmethyl]-benzofuran-6-yloxy}-thiazolo[4,5-b]pyridine formate] | 40 | 170
CC(=O)N1[C@@H]2CC[C@H]1CN(Cc1coc3cc(Oc4nc5ncccc5s4)ccc13)C2 [Example 295, meso-1-{3-[6-(Thiazolo[4,5-b]pyridin-2-yloxy)-benzofuran-3-ylmethyl]-3,8-diaza-bicyclo[3.2.1]oct-8-yl}-ethanone formate] | 4 | 55
c1cnc2nc(Oc3ccc4c(CNC5CC5)coc4c3)sc2c1 [Example 297, Cyclopropyl-[6-(thiazolo[4,5-b]pyridin-2-yloxy)-benzofuran-3-ylmethyl]-amine] | 19 | 240

Continued by falling IC50 [1], values first:

IC50 [1] [nM] | IC50 [2] [nM] | SMILES
19 | 170 | c1ccc(N2CCN(Cc3coc4cc(Oc5nc6ncccc6s5)ccc34)CC2)nc1 [Example 288, 2-[3-(4-Pyridin-2-yl-piperazin-1-ylmethyl)-benzofuran-6-yloxy]-thiazolo[4,5-b]pyridine formate]
17 | 72 | CN(C)C1CCN(Cc2coc3cc(Oc4nc5ncccc5s4)ccc23)CC1 [Example 282, Dimethyl-{1-[6-(thiazolo[4,5-b]pyridin-2-yloxy)-benzofuran-3-ylmethyl]-piperidin-4-yl}-amine formate]
16 | 50 | c1cnc2nc(Oc3ccc4c(CN5CCC(N6CCOCC6)CC5)coc4c3)sc2c1 [Example 285, 2-[3-(4-Morpholin-4-yl-piperidin-1-ylmethyl)-benzofuran-6-yloxy]-thiazolo[4,5-b]pyridine formate]
14 | 130 | c1ccc(CCN2CCN(Cc3coc4cc(Oc5nc6ncccc6s5)ccc34)CC2)cc1 [Example 291, 2-[3-(4-Phenethyl-piperazin-1-ylmethyl)-benzofuran-6-yloxy]-thiazolo[4,5-b]pyridine formate]
12 | 17 | c1cnc2nc(Oc3ccc4c(CNC5CCCC5)coc4c3)sc2c1 [Example 298, Cyclopentyl-[6-(thiazolo[4,5-b]pyridin-2-yloxy)-benzofuran-3-ylmethyl]-amine]
4 | 40 | c1cnc2nc(Oc3ccc4c(CN5CCN(c6ccncc6)CC5)coc4c3)sc2c1 [Example 289, 2-[3-(4-Pyridin-4-yl-piperazin-1-ylmethyl)-benzofuran-6-yloxy]-thiazolo[4,5-b]pyridine formate]
1 | 55 | CC1CCN(Cc2coc3cc(Oc4nc5ncccc5s4)ccc23)CC1 [Example 286, 2-[3-(4-Methyl-piperidin-1-ylmethyl)-benzofuran-6-yloxy]-thiazolo[4,5-b]pyridine formate]
